Results as given in patent US20260132164A1, “PNU ANTHRACYCLINE DERIVATIVES AND METHODS OF USE THEREOF” (Merck Sharp & Dohme LLC, priority 2022, published 2026).

Tested on: BxPC3
Experiment: CellTiter-Glo 2.0 Cytotoxicity Assay
Type: cell-based
Details: Homo sapiens, BXPC-3, CellTiter-Glo 2.0 luminescence; compound added day 1, read on day 4 or 5; 3000 cells/well

SMILES | EC50 [nM]
COc1cccc2c1C(=O)c1c(O)c3c(c(O)c1C2=O)C[C@@](O)(C(=O)NCc1ccc(CN)cc1)C[C@@H]3O[C@H]1C[C@H]2[C@H](O[C@@H]3[C@@H](OC)OCCN32)[C@H](C)O1 [Compound 41] | 0.42
COc1cccc2c1C(=O)c1c(O)c3c(c(O)c1C2=O)C[C@@](O)(C(=O)N[C@H]1C[C@H](N)C1)C[C@@H]3O[C@H]1C[C@H]2[C@H](O[C@@H]3[C@@H](OC)OCCN32)[C@H](C)O1 [Compound 42] | 12
COc1cccc2c1C(=O)c1c(O)c3c(c(O)c1C2=O)C[C@@](O)(C(=O)NC[C@H]1C[C@H](N)C1)C[C@@H]3O[C@H]1C[C@H]2[C@H](O[C@@H]3[C@@H](OC)OCCN32)[C@H](C)O1 [Compound 43] | 2.2
COc1cccc2c1C(=O)c1c(O)c3c(c(O)c1C2=O)C[C@@](O)(C(=O)NC12CC(CN)(C1)C2)C[C@@H]3O[C@H]1C[C@H]2[C@H](O[C@@H]3[C@@H](OC)OCCN32)[C@H](C)O1 [Compound 44] | 4.8
COc1cccc2c1C(=O)c1c(O)c3c(c(O)c1C2=O)C[C@@](O)(C(=O)NCC[C@H]1CCCN1)C[C@@H]3O[C@H]1C[C@H]2[C@H](O[C@@H]3[C@@H](OC)OCCN32)[C@H](C)O1 [Compound 45] | 0.6
COc1cccc2c1C(=O)c1c(O)c3c(c(O)c1C2=O)C[C@@](O)(C(=O)NC1CC2(CNC2)C1)C[C@@H]3O[C@H]1C[C@H]2[C@H](O[C@@H]3[C@@H](OC)OCCN32)[C@H](C)O1 [Compound 46] | 18
COc1cccc2c1C(=O)c1c(O)c3c(c(O)c1C2=O)C[C@@](O)(C(=O)NCC1CNC1)C[C@@H]3O[C@H]1C[C@H]2[C@H](O[C@@H]3[C@@H](OC)OCCN32)[C@H](C)O1 [Compound 47] | 9.4
COc1cccc2c1C(=O)c1c(O)c3c(c(O)c1C2=O)C[C@@](O)(C(=O)NCCN(C)C(=O)C1(N)CCCC1)C[C@@H]3O[C@H]1C[C@H]2[C@H](O[C@@H]3[C@@H](OC)OCCN32)[C@H](C)O1 [Compound 48] | 0.31
COc1cccc2c1C(=O)c1c(O)c3c(c(O)c1C2=O)C[C@@](O)(C(=O)NCCC1(N)COC1)C[C@@H]3O[C@H]1C[C@H]2[C@H](O[C@@H]3[C@@H](OC)OCCN32)[C@H](C)O1 [Compound 51] | 0.18
COc1cccc2c1C(=O)c1c(O)c3c(c(O)c1C2=O)C[C@@](O)(C(=O)NCCN(C)C(=O)[C@@](C)(N)C(C)C)C[C@@H]3O[C@H]1C[C@H]2[C@H](O[C@@H]3[C@@H](OC)OCCN32)[C@H](C)O1 [Compound 52] | 1.9
COc1cccc2c1C(=O)c1c(O)c3c(c(O)c1C2=O)C[C@@](O)(C(=O)N[C@H]1C[C@@H](N)C1)C[C@@H]3O[C@H]1C[C@H]2[C@H](O[C@@H]3[C@@H](OC)OCCN32)[C@H](C)O1 [Compound 53] | 7.7
COc1cccc2c1C(=O)c1c(O)c3c(c(O)c1C2=O)C[C@@](O)(C(=O)NCCCCN)C[C@@H]3O[C@H]1C[C@H]2[C@H](O[C@@H]3[C@@H](OC)OCCN32)[C@H](C)O1 [Compound 54] | 1.4
COc1cccc2c1C(=O)c1c(O)c3c(c(O)c1C2=O)C[C@@](O)(C(=O)N[C@H]1C[C@@H](CN)C1)C[C@@H]3O[C@H]1C[C@H]2[C@H](O[C@@H]3[C@@H](OC)OCCN32)[C@H](C)O1 [Compound 55] | 10.2
COc1cccc2c1C(=O)c1c(O)c3c(c(O)c1C2=O)C[C@@](O)(C(=O)NCC(C)(C)CN)C[C@@H]3O[C@H]1C[C@H]2[C@H](O[C@@H]3[C@@H](OC)OCCN32)[C@H](C)O1 [Compound 56] | 1.4
COc1cccc2c1C(=O)c1c(O)c3c(c(O)c1C2=O)C[C@@](O)(C(=O)NC12CNCC1C2)C[C@@H]3O[C@H]1C[C@H]2[C@H](O[C@@H]3[C@@H](OC)OCCN32)[C@H](C)O1 (stereo partly shown) [Compound 57] | 1.6
COc1cccc2c1C(=O)c1c(O)c3c(c(O)c1C2=O)C[C@@](O)(C(=O)NC[C@@H]1CCNC1)C[C@@H]3O[C@H]1C[C@H]2[C@H](O[C@@H]3[C@@H](OC)OCCN32)[C@H](C)O1 [Compound 58] | 3.9
COc1cccc2c1C(=O)c1c(O)c3c(c(O)c1C2=O)C[C@@](O)(C(=O)N[C@H]1CC[C@H](N)CC1)C[C@@H]3O[C@H]1C[C@H]2[C@H](O[C@@H]3[C@@H](OC)OCCN32)[C@H](C)O1 [Compound 59] | 6.3
COc1cccc2c1C(=O)c1c(O)c3c(c(O)c1C2=O)C[C@@](O)(C(=O)NC12CC(NC(=O)CO)(C1)C2)C[C@@H]3O[C@H]1C[C@H]2[C@H](O[C@@H]3[C@@H](OC)OCCN32)[C@H](C)O1 [Compound 60] | 0.55
COc1cccc2c1C(=O)c1c(O)c3c(c(O)c1C2=O)C[C@@](O)(C(=O)NCC(C)(C)N)C[C@@H]3O[C@H]1C[C@H]2[C@H](O[C@@H]3[C@@H](OC)OCCN32)[C@H](C)O1 [Compound 61, (2S,4S)—N-(2-amino-2-methylpropyl)-2,5,12-trihydroxy-7-methoxy-4-(((1S,3R,4aS,9S,9aR,10aS)-9-methoxy-1-methyloctahydro-1H-pyrano[4′,3′:4,5]oxazolo[2,3-c][1,4]oxazin-3-yl)oxy)-6,11-dioxo-1,2,3,4,6,11-hexahydrotetracene-2-carboxamide] | 8.7
COc1cccc2c1C(=O)c1c(O)c3c(c(O)c1C2=O)C[C@@](O)(C(=O)NCCN1C(=O)CNC1=O)C[C@@H]3O[C@H]1C[C@H]2[C@H](O[C@@H]3[C@@H](OC)OCCN32)[C@H](C)O1 [Compound 62] | 0.19

SMILES | EC50 [nM]
COc1cccc2c1C(=O)c1c(O)c3c(c(O)c1C2=O)C[C@@](O)(C(=O)NCCN1CCNC1=O)C[C@@H]3O[C@H]1C[C@H]2[C@H](O[C@@H]3[C@@H](OC)OCCN32)[C@H](C)O1 [Compound 63] | 0.14
COc1cccc2c1C(=O)c1c(O)c3c(c(O)c1C2=O)C[C@@](O)(C(=O)NCC1(N)CC1)C[C@@H]3O[C@H]1C[C@H]2[C@H](O[C@@H]3[C@@H](OC)OCCN32)[C@H](C)O1 [Compound 64] | 0.49
COc1cccc2c1C(=O)c1c(O)c3c(c(O)c1C2=O)C[C@@](O)(C(=O)NCC(N)C(F)(F)F)C[C@@H]3O[C@H]1C[C@H]2[C@H](O[C@@H]3[C@@H](OC)OCCN32)[C@H](C)O1 (stereo partly shown) [Compound 65] | 0.16
COc1cccc2c1C(=O)c1c(O)c3c(c(O)c1C2=O)C[C@@](O)(C(=O)N1CCNCC1)C[C@@H]3O[C@H]1C[C@H]2[C@H](O[C@@H]3[C@@H](OC)OCCN32)[C@H](C)O1 [Compound 68] | 8.1
COc1cccc2c1C(=O)c1c(O)c3c(c(O)c1C2=O)C[C@@](O)(C(=O)NCC(N)C(F)F)C[C@@H]3O[C@H]1C[C@H]2[C@H](O[C@@H]3[C@@H](OC)OCCN32)[C@H](C)O1 (stereo partly shown) [Compound 69] | 0.16
COc1cccc2c1C(=O)c1c(O)c3c(c(O)c1C2=O)C[C@@](O)(C(=O)NCc1cnc(N)o1)C[C@@H]3O[C@H]1C[C@H]2[C@H](O[C@@H]3[C@@H](OC)OCCN32)[C@H](C)O1 [Compound 70] | 0.095
COc1cccc2c1C(=O)c1c(O)c3c(c(O)c1C2=O)C[C@@](O)(C(=O)N[C@@H]1CCC[C@H]1N)C[C@@H]3O[C@H]1C[C@H]2[C@H](O[C@@H]3[C@@H](OC)OCCN32)[C@H](C)O1 [Compound 71] | 8.4
COc1cccc2c1C(=O)c1c(O)c3c(c(O)c1C2=O)C[C@@](O)(C(=O)NCc1ccc(N)nc1)C[C@@H]3O[C@H]1C[C@H]2[C@H](O[C@@H]3[C@@H](OC)OCCN32)[C@H](C)O1 [Compound 72] | 0.08
COc1cccc2c1C(=O)c1c(O)c3c(c(O)c1C2=O)C[C@@](O)(C(=O)NCCC(N)C(F)(F)F)C[C@@H]3O[C@H]1C[C@H]2[C@H](O[C@@H]3[C@@H](OC)OCCN32)[C@H](C)O1 (stereo partly shown) [Compound 73] | 0.2
COc1cccc2c1C(=O)c1c(O)c3c(c(O)c1C2=O)C[C@@](O)(C(=O)NCCC(N)C(F)F)C[C@@H]3O[C@H]1C[C@H]2[C@H](O[C@@H]3[C@@H](OC)OCCN32)[C@H](C)O1 (stereo partly shown) [Compound 74] | 0.2
COc1cccc2c1C(=O)c1c(O)c3c(c(O)c1C2=O)C[C@@](O)(C(=O)N1C[C@H]2CN[C@H]2C1)C[C@@H]3O[C@H]1C[C@H]2[C@H](O[C@@H]3[C@@H](OC)OCCN32)[C@H](C)O1 [Compound 75] | 2.9
COc1cccc2c1C(=O)c1c(O)c3c(c(O)c1C2=O)C[C@@](O)(C(=O)N1C[C@@H]2CN[C@@H]2C1)C[C@@H]3O[C@H]1C[C@H]2[C@H](O[C@@H]3[C@@H](OC)OCCN32)[C@H](C)O1 [Compound 76] | 15
COc1cccc2c1C(=O)c1c(O)c3c(c(O)c1C2=O)C[C@@](O)(C(=O)Nc1ccc(N)cc1)C[C@@H]3O[C@H]1C[C@H]2[C@H](O[C@@H]3[C@@H](OC)OCCN32)[C@H](C)O1 [Compound 77] | 0.11
COc1cccc2c1C(=O)c1c(O)c3c(c(O)c1C2=O)C[C@@](O)(C(=O)NCc1ccc(O)cc1)C[C@@H]3O[C@H]1C[C@H]2[C@H](O[C@@H]3[C@@H](OC)OCCN32)[C@H](C)O1 [Compound 78] | 0.056
COc1cccc2c1C(=O)c1c(O)c3c(c(O)c1C2=O)C[C@@](O)(C(=O)NCc1ccccc1N)C[C@@H]3O[C@H]1C[C@H]2[C@H](O[C@@H]3[C@@H](OC)OCCN32)[C@H](C)O1 [Compound 79] | 0.15
COc1cccc2c1C(=O)c1c(O)c3c(c(O)c1C2=O)C[C@@](O)(C(=O)N[C@H]1CCC[C@@H]1N)C[C@@H]3O[C@H]1C[C@H]2[C@H](O[C@@H]3[C@@H](OC)OCCN32)[C@H](C)O1 [Compound 80] | 14.1
COc1cccc2c1C(=O)c1c(O)c3c(c(O)c1C2=O)C[C@@](O)(C(=O)Nc1cc(N)n(C)n1)C[C@@H]3O[C@H]1C[C@H]2[C@H](O[C@@H]3[C@@H](OC)OCCN32)[C@H](C)O1 [Compound 81] | 0.4
COc1cccc2c1C(=O)c1c(O)c3c(c(O)c1C2=O)C[C@@](O)(C(=O)NCc1nc(N)cn1C)C[C@@H]3O[C@H]1C[C@H]2[C@H](O[C@@H]3[C@@H](OC)OCCN32)[C@H](C)O1 [Compound 82] | 0.26
COc1cccc2c1C(=O)c1c(O)c3c(c(O)c1C2=O)C[C@@](O)(C(=O)Nc1ccc(CN)cc1)C[C@@H]3O[C@H]1C[C@H]2[C@H](O[C@@H]3[C@@H](OC)OCCN32)[C@H](C)O1 [Compound 83] | 11
COc1cccc2c1C(=O)c1c(O)c3c(c(O)c1C2=O)C[C@@](O)(C(=O)NCC12CC(N)(C1)C2)C[C@@H]3O[C@H]1C[C@H]2[C@H](O[C@@H]3[C@@H](OC)OCCN32)[C@H](C)O1 [Compound 84] | 0.61
